Assay results reported in paper PMC11374673, “Discovery of isoquinoline sulfonamides as allosteric gyrase inhibitors with activity against fluoroquinolone-resistant bacteria” (Nature Chemistry, 2024).
Converted amounts (≈) assume the structure as drawn. “And” between values parts separate entries of the source, which are not always exact repeats. Equal entries are not always repeated. Where two headings read alike, the source gives them in different places.

Columns and labels:
E. coli W3110 = assay: MIC by broth microdilution; assay type: cell-based, Escherichia coli; details: for MIC: broth microdilution, read-out: MIC E. coli W3110; for antimicrobial activity: relative to parent compound
Method: (§1) MIC was determined by broth microdilution. Single-colony cultures were grown to exponential phase (OD600 of 0.5) aerobically at 37 °C. In case of strains from the Keio collection, 50 µg ml^−1 kanamycin was supplemented to the media to ascertain a homogeneous population. The bacterial suspensions were diluted 100-fold in CAMHB and 50 µl was added to a twofold serial dilution series of test compounds (50 µl per well) in polypropylene 96-well microtitre plates to reach a volume of 100 µl. The plates were sealed with breathable membranes and incubated overnight at 37 °C with constant shaking (600 r.p.m.).

K. pneumoniae ATCC 29665 = assay: MIC by broth microdilution; assay type: cell-based, Klebsiella pneumoniae; details: read-out: MIC K. pneumoniae ATCC 29665
Method: as §1

HEK293T = assay: Cytotoxicity assay (MTT); assay type: cell-based, human; details: for MTT data (raw readout): HEK293T; for IC50: 24 h, MTT
Method: (§2) HepG2 (ATCC HB-8065) and HEK293T (ATCC CRL-3216) cell lines were cultured at 37 °C and 7% CO2 in Dulbecco’s modified Eagle medium (Sigma-Aldrich, D6546) with GlutaMax, penicillin (100 µg ml^−1), streptomycin (100 µg ml^−1) and 10% fetal calf serum. Cells were passaged twice a week by first detaching using 0.05% trypsin in phosphate-buffered saline (PBS) and then diluting to appropriate confluence. Compound cytotoxicity was evaluated using the standard (3-(4,5-dimethylthiazol-2-yl)-2,5-diphenyltetrazolium bromide (MTT) assay protocol (MTT assay protocol for cell viability and proliferation, Merck) with slight changes. HepG2 and HEK293T cells were seeded at a density of 1.5 × 10^4 cells per well in a clear 96-well tissue culture treated plate in a final volume of 100 µl in Dulbecco’s modified Eagle medium, supplemented with fetal bovine serum (1%), GlutaMax and penicillin/streptomycin. Cells were incubated for 24 h at 37 °C, 7% CO2 to allow cells to attach to the plates. […] Incubation was done for 24 h at 37 °C, 7% CO2. After the incubation, MTT was added to each well at a final concentration of 0.40 mg ml^−1. The plates were then incubated for 2 h at 37 °C, 7% CO2. Medium was carefully removed via suction, and purple formazan crystals were resuspended in 100 µl DMSO. Absorbance was read at 570 nm using a Clariostar plate reader with MARS (V4.20). The data were then analysed with GraphPad Prism software. IC50 values were calculated using non-linear fitted curve with variable slope settings, with values adjusted for background (plotted absorbance (ABS)sample = (ABSsample – ABSbackground) / (ABSvehicle – ABSbackground)). Technical triplicates for each condition were used, along with biological duplicates.

HepG2 = assay: Cytotoxicity assay (MTT); assay type: cell-based, human; details: for IC50: Homo sapiens, HepG2, 24 h, MTT, 24 h
Method: as §2

[1] = Klebsiella pneumoniae, ATCC29665, broth microdilution
[2] = 0.023 uM, experiment n = 1, technical triplicates
[3] = 0.023 uM, experiment n = 2, technical triplicates
[4] = 0.068 uM, experiment n = 1, technical triplicates
[5] = 0.068 uM, experiment n = 2, technical triplicates
[6] = 0.21 uM, experiment n = 1, technical triplicates
[7] = 0.21 uM, experiment n = 2, technical triplicates
[8] = 0.62 uM, experiment n = 1, technical triplicates
[9] = 0.62 uM, experiment n = 2, technical triplicates
[10] = 1.85 uM, experiment n = 1, technical triplicates
[11] = 1.85 uM, experiment n = 2, technical triplicates
[12] = 5.6 uM, experiment n = 1, technical triplicates
[13] = 5.6 uM, experiment n = 2, technical triplicates
[14] = 16.7 uM, experiment n = 1, technical triplicates
[15] = 50 uM, experiment n = 1, technical triplicates
[16] = 50 uM, experiment n = 2, technical triplicates
[17] = HepG2, 0.023 uM, experiment n = 1, technical triplicates
[18] = HepG2, 0.023 uM, experiment n = 2, technical triplicates
[19] = HepG2, 0.068 uM, experiment n = 1, technical triplicates
[20] = HepG2, 0.068 uM, experiment n = 2, technical triplicates
[21] = HepG2, 0.21 uM, experiment n = 1, technical triplicates
[22] = HepG2, 0.21 uM, experiment n = 2, technical triplicates
[23] = HepG2, 0.62 uM, experiment n = 1, technical triplicates
[24] = HepG2, 0.62 uM, experiment n = 2, technical triplicates
[25] = HepG2, 1.85 uM, experiment n = 1, technical triplicates
[26] = HepG2, 1.85 uM, experiment n = 2, technical triplicates

## O=S(=O)(NCCNCc1ccc(-c2ccccc2)cc1)c1cccc2cnccc12 [Compound 56]
E. coli W3110; Escherichia coli, W3110, WT
  MIC: 6.25 µM (≈ 2.61 µg/mL)
E. coli W3110
  antimicrobial activity: equally potent
K. pneumoniae ATCC 29665; [1]
  MIC: 12.5 µM (≈ 5.22 µg/mL)
HEK293T; [2]
  MTT data (raw readout): 0.760 and 0.712 and 0.710
HEK293T; [3]
  MTT data (raw readout): 0.814 and 0.790 and 0.847
HEK293T; [4]
  MTT data (raw readout): 0.777 and 0.824 and 0.787
HEK293T; [5]
  MTT data (raw readout): 0.796 and 0.816 and 0.794
HEK293T; [6]
  MTT data (raw readout): 0.818 and 0.751 and 0.739
HEK293T; [7]
  MTT data (raw readout): 0.813 and 0.836 and 0.832
HEK293T; [8]
  MTT data (raw readout): 0.783 and 0.761 and 0.744
HEK293T; [9]
  MTT data (raw readout): 0.785 and 0.778 and 0.750
HEK293T; [10]
  MTT data (raw readout): 0.680 and 0.683 and 0.658
HEK293T; [11]
  MTT data (raw readout): 0.720 and 0.749 and 0.788
HEK293T; [12]
  MTT data (raw readout): 0.523 and 0.537 and 0.570
HEK293T; [13]
  MTT data (raw readout): 0.582 and 0.590 and 0.593
HEK293T; [14]
  MTT data (raw readout): 0.243 and 0.263 and 0.287
HEK293T; 16.7 uM, experiment n = 2, technical triplicates
  MTT data (raw readout): 0.271 and 0.304 and 0.282
HEK293T; [15]
  MTT data (raw readout): 0.032 and 0.041 and 0.051
HEK293T; [16]
  MTT data (raw readout): 0.036 and 0.023 and 0.035
HEK293T; Homo sapiens, HEK-293T
  IC50: 10 µM
HEK293T
  IC50: 10.4 µM
HepG2; [17]
  MTT data (raw readout): 0.559 and 0.503 and 0.453
HepG2; [18]
  MTT data (raw readout): 0.586 and 0.547 and 0.578
HepG2; [19]
  MTT data (raw readout): 0.490 and 0.488 and 0.494
HepG2; [20]
  MTT data (raw readout): 0.579 and 0.616 and 0.615
HepG2; [21]
  MTT data (raw readout): 0.573 and 0.504 and 0.507
HepG2; [22]
  MTT data (raw readout): 0.577 and 0.574 and 0.618
HepG2; [23]
  MTT data (raw readout): 0.495 and 0.510 and 0.493
HepG2; [24]
  MTT data (raw readout): 0.602 and 0.579 and 0.597
HepG2; [25]
  MTT data (raw readout): 0.533 and 0.518 and 0.529
HepG2; [26]
  MTT data (raw readout): 0.634 and 0.597 and 0.638
HepG2; HepG2, 5.6 uM, experiment n = 1, technical triplicates
  MTT data (raw readout): 0.550 and 0.534 and 0.503
HepG2; HepG2, 5.6 uM, experiment n = 2, technical triplicates
  MTT data (raw readout): 0.619 and 0.618 and 0.638
HepG2; HepG2, 16.7 uM, experiment n = 1, technical triplicates
  MTT data (raw readout): 0.186 and 0.116 and 0.134
HepG2; HepG2, 50 uM, experiment n = 1, technical triplicates
  MTT data (raw readout): 0.0047 and 0.0027
HepG2
  IC50: 16.7 µM

## O=S(=O)(NCCNCc1ccc(-c2ccc(F)cc2)cc1)c1cccc2cnccc12 [Compound 59]
E. coli W3110; Escherichia coli, W3110, WT
  MIC: 3.1 µM (≈ 1.35 µg/mL)
E. coli W3110; WT
  MIC: 3.125 µM (≈ 1.36 µg/mL)
E. coli W3110
  antimicrobial activity: twofold increase in potency
K. pneumoniae ATCC 29665; [1]
  MIC: 6.25 µM (≈ 2.72 µg/mL)
HEK293T; [2]
  MTT data (raw readout): 1.333 and 1.279 and 1.355
HEK293T; [3]
  MTT data (raw readout): 1.390 and 1.481 and 1.407
HEK293T; [4]
  MTT data (raw readout): 1.383 and 1.359
HEK293T; [5]
  MTT data (raw readout): 1.383 and 1.292 and 1.538
HEK293T; [6]
  MTT data (raw readout): 1.318 and 1.351 and 1.256
HEK293T; [7]
  MTT data (raw readout): 1.291 and 1.248 and 1.339
HEK293T; [8]
  MTT data (raw readout): 1.028 and 1.043 and 1.203
HEK293T; [9]
  MTT data (raw readout): 1.142 and 1.303 and 1.183
HEK293T; [10]
  MTT data (raw readout): 0.845 and 0.882 and 0.691
HEK293T; [11]
  MTT data (raw readout): 0.871 and 0.885 and 0.773
HEK293T; [12]
  MTT data (raw readout): 0.197 and 0.226 and 0.189
HEK293T; [13]
  MTT data (raw readout): 0.227 and 0.205 and 0.278
HEK293T; [14]
  MTT data (raw readout): 0.068 and 0.048 and 0.059
HEK293T; [15]
  MTT data (raw readout): 0.036 and 0.035 and 0.032
HEK293T; [16]
  MTT data (raw readout): 0.032 and 0.034 and 0.028
HEK293T; Homo sapiens, HEK-293T
  IC50: 1.7 µM
HEK293T
  IC50: 2.6 µM
HepG2; [17]
  MTT data (raw readout): 1.000 and 0.992 and 0.989
HepG2; [18]
  MTT data (raw readout): 0.854 and 0.789 and 0.774
HepG2; [19]
  MTT data (raw readout): 0.940 and 0.990 and 0.945
HepG2; [20]
  MTT data (raw readout): 0.876 and 0.808 and 0.777
HepG2; [21]
  MTT data (raw readout): 0.977 and 1.029 and 0.973
HepG2; [22]
  MTT data (raw readout): 0.822 and 0.816 and 0.771
HepG2; [23]
  MTT data (raw readout): 0.952 and 1.030 and 0.967
HepG2; [24]
  MTT data (raw readout): 0.836 and 0.820 and 0.813
HepG2; [25]
  MTT data (raw readout): 0.913 and 0.914 and 0.948
HepG2; [26]
  MTT data (raw readout): 0.795 and 0.749 and 0.743
HepG2
  IC50: 1.7 µM

## O=S(=O)(NCCNCc1ccc(-c2cccnc2)nc1)c1cccc2cnccc12 [Compound 79]
E. coli W3110; Escherichia coli, W3110, WT
  MIC: > 50 µM
E. coli W3110; WT
  MIC: >50 µM
K. pneumoniae ATCC 29665; [1]
  MIC: > 50 µM
K. pneumoniae ATCC 29665; broth microdilution
  MIC: >50 µM

## O=S(=O)(NCCNCc1ccc(-c2ccc(F)cc2)nc1)c1cccc2cnccc12 [Compound 82]
E. coli W3110; Escherichia coli, W3110, WT
  MIC: > 50 µM
E. coli W3110; WT
  MIC: >50 µM
K. pneumoniae ATCC 29665; [1]
  MIC: > 50 µM
K. pneumoniae ATCC 29665; broth microdilution
  MIC: >50 µM

## O=S(=O)(NCCNCc1ccc(-c2ccc(F)nc2)nc1)c1cccc2cnccc12 [Compound 81]
E. coli W3110; Escherichia coli, W3110, WT
  MIC: > 50 µM
E. coli W3110; WT
  MIC: >50 µM
K. pneumoniae ATCC 29665; [1]
  MIC: > 50 µM
K. pneumoniae ATCC 29665; broth microdilution
  MIC: >50 µM

## O=S(=O)(NCCNCc1ccc(-c2ccccc2)c(F)c1)c1cccc2cnccc12 [Compound 88]
E. coli W3110; Escherichia coli, W3110, WT
  MIC: 12.5 µM (≈ 5.44 µg/mL)
K. pneumoniae ATCC 29665; [1]
  MIC: 25 µM (≈ 10.9 µg/mL)

## O=S(=O)(NCCNCc1ccc(-c2ccncc2)cc1)c1cccc2cnccc12 [Compound 65]
E. coli W3110; Escherichia coli, W3110, WT
  MIC: 12.5 µM (≈ 5.23 µg/mL)
K. pneumoniae ATCC 29665; [1]
  MIC: 25 µM (≈ 10.5 µg/mL)

## O=S(=O)(NCCNCc1ccc(-c2ccc3c(c2)OCCO3)cc1)c1cccc2cnccc12 [Compound 78]
E. coli W3110; Escherichia coli, W3110, WT
  MIC: > 50 µM
E. coli W3110; WT
  MIC: >50 µM
K. pneumoniae ATCC 29665; [1]
  MIC: > 50 µM
K. pneumoniae ATCC 29665; broth microdilution
  MIC: >50 µM

## CNC(=O)c1ccc(S(=O)(=O)NCCNCc2ccc(-c3cccnc3)cc2)cn1 [Compound 51]
E. coli W3110; Escherichia coli, W3110, WT
  MIC: > 50 µM
E. coli W3110; WT
  MIC: >50 µM
K. pneumoniae ATCC 29665; [1]
  MIC: > 50 µM
K. pneumoniae ATCC 29665; broth microdilution
  MIC: >50 µM
